Molecules are shown by their SMILES.

Holding throughout (format): biochemical, influenza A/Chungbuk/4448/2008(H1N1) virus
Assay [1] concerns the target neuraminidase (NA) of recombinant virus Chungbuk-Y275H-N295S-I117V (Influenza A virus (A/Chungbuk/4448/2008(H1N1)), UniProt E3JK96, I117V/N295S/Y275H).
The subject of assay [2] is NA of all the single and double mutants containing tyrosine (Y) at NA residue 275 except Chungbuk-Y275-E119V.
Assay [3] concerns NA of all the single, double, and triple mutants containing the E119V mutation.
Assay [4] has as its target neuraminidase (NA) of recombinant virus Chungbuk-Y275H-N295S-I223V (Influenza A virus (A/Chungbuk/4448/2008(H1N1)), UniProt E3JK96, I223V/N295S/Y275H).
In assay [5] the target is neuraminidase (NA) of recombinant virus Chungbuk-Y275-N295S-I117M (Influenza A virus, UniProt E3JK96, I117M/N295S).
For assay [6], the target named is neuraminidase (NA) of recombinant virus Chungbuk-Y275H-E119V (Influenza A virus, UniProt E3JK96, E119V/Y275H).
Assay [7] concerns the target neuraminidase (NA) of recombinant virus Chungbuk-Y275H-N295S-I117M (Influenza A virus (A/Chungbuk/4448/2008(H1N1)), UniProt E3JK96, I117M/N295S/Y275H).
Assay [8] concerns the target neuraminidase (NA) of recombinant virus Chungbuk-Y275-E119V (Influenza A virus, UniProt E3JK96, E119V).
The target of assay [9] is neuraminidase (NA) of recombinant virus Chungbuk-Y275-N295S-I223V (Influenza A virus, UniProt E3JK96, I223V/N295S).

As to `CC(=O)N[C@H]1[C@H]([C@H](O)[C@H](O)CO)OC(C(=O)O)=C[C@@H]1N=C(N)N` [Zanamivir], the NAI resistance phenotype entry is given as “susceptible” in assay [1]; “susceptibility” in assay [2]; “resistance” in [3]; “susceptible” in assay [4]; “susceptible” in assay [5]; “important levels of resistance” in assay [6]. The NAI resistance phenotype result in assay [7] is “susceptible”; in assay [8], “important levels of resistance”; in assay [9], “susceptible”.

(Values after article PMC3922101 (Osong Public Health and Research Perspectives, 2013).)
